#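 Five compound concentrations were applied to cells in 96-well plates for 48 hours; endpoints were derived by simple linear interpolation of the resulting dose-response curve. At the TGI there is no net growth.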
# How the values were obtained:
# Assay in all cases: inhibition of tumour cell growth, NCI panel, 48 h
# 786-0 renal = test system: 786-0 renal
# A498 renal = test system: A498 renal
# A549 NSCLC = test system: A549 NSCLC
# ACHN renal = test system: ACHN renal
# BT-549 breast = test system: BT-549 breast
# CAKI-1 renal = test system: CAKI-1 renal
# CCRF-CEM leukemia = test system: CCRF-CEM leukemia
# COLO 205 colon = test system: COLO 205 colon
# DU-145 prostate = test system: DU-145 prostate
# EKVX NSCLC = test system: EKVX NSCLC
# HCC-2998 colon = test system: HCC-2998 colon
# HCT-116 colon = test system: HCT-116 colon
# HCT-15 colon = test system: HCT-15 colon
# HL-60(TB) leukemia = test system: HL-60(TB) leukemia
# HOP-92 NSCLC = test system: HOP-92 NSCLC
# HS 578T breast = test system: HS 578T breast
# HT29 colon = test system: HT29 colon
# IGROV1 ovarian = test system: IGROV1 ovarian
# K-562 leukemia = test system: K-562 leukemia
# KM12 colon = test system: KM12 colon
# LOX IMVI melanoma = test system: LOX IMVI melanoma
# M14 melanoma = test system: M14 melanoma
# MALME-3M melanoma = test system: MALME-3M melanoma
# MCF7 breast = test system: MCF7 breast
# MDA-MB-231 breast = test system: MDA-MB-231 breast
# MDA-MB-435 = test system: MDA-MB-435
# MDA-N = test system: MDA-N
# MOLT-4 leukemia = test system: MOLT-4 leukemia
# NCI-H226 lung = test system: NCI-H226 lung
# NCI-H23 lung = test system: NCI-H23 lung
# NCI-H460 lung = test system: NCI-H460 lung
# NCI/ADR-RES ovarian = test system: NCI/ADR-RES ovarian
# OVCAR-3 ovarian = test system: OVCAR-3 ovarian
# OVCAR-4 ovarian = test system: OVCAR-4 ovarian
# OVCAR-5 ovarian = test system: OVCAR-5 ovarian
# OVCAR-8 ovarian = test system: OVCAR-8 ovarian
# PC-3 prostate = test system: PC-3 prostate
# RPMI-8226 leukemia = test system: RPMI-8226 leukemia
# RXF 393 renal = test system: RXF 393 renal
# SF-268 CNS = test system: SF-268 CNS
# SF-295 CNS = test system: SF-295 CNS
# SF-539 CNS = test system: SF-539 CNS
# SK-MEL-2 melanoma = test system: SK-MEL-2 melanoma
# SK-MEL-28 melanoma = test system: SK-MEL-28 melanoma
# SK-MEL-5 melanoma = test system: SK-MEL-5 melanoma
# SK-OV-3 ovarian = test system: SK-OV-3 ovarian
# SNB-19 CNS = test system: SNB-19 CNS
# SNB-75 CNS = test system: SNB-75 CNS
# SR leukemia = test system: SR leukemia
# SW-620 colon = test system: SW-620 colon
# T-47D breast = test system: T-47D breast
# TK-10 renal = test system: TK-10 renal
# U251 CNS = test system: U251 CNS
# UACC-257 melanoma = test system: UACC-257 melanoma
# UACC-62 melanoma = test system: UACC-62 melanoma
# UO-31 renal = test system: UO-31 renal
# HOP-62 NSCLC = test system: HOP-62 NSCLC
# NCI-H522 lung = test system: NCI-H522 lung
# SN12C renal = test system: SN12C renal
structure (smiles),measurement,setting,value
O=C(N=Nc1c(O)[nH]c2ccccc12)C(O)(c1ccccc1)c1ccccc1,TGI,786-0 renal,> 100 µM
same,TGI,A498 renal,36 µM
same,TGI,A549 NSCLC,42.1 µM
same,TGI,ACHN renal,> 100 µM
same,TGI,BT-549 breast,28.9 µM
same,TGI,CAKI-1 renal,> 100 µM
same,TGI,CCRF-CEM leukemia,> 100 µM
same,TGI,COLO 205 colon,33.3 µM
same,TGI,DU-145 prostate,73.9 µM
same,TGI,EKVX NSCLC,> 100 µM
same,TGI,HCC-2998 colon,27.9 µM
same,TGI,HCT-116 colon,37.5 µM
same,TGI,HCT-15 colon,30.3 µM
same,TGI,HL-60(TB) leukemia,69 µM
same,TGI,HOP-92 NSCLC,49.7 µM
same,TGI,HS 578T breast,66.6 µM
same,TGI,HT29 colon,37.2 µM
same,TGI,IGROV1 ovarian,39.6 µM
same,TGI,K-562 leukemia,89.8 µM
same,TGI,KM12 colon,35.4 µM
same,TGI,LOX IMVI melanoma,31.4 µM
same,TGI,M14 melanoma,30.4 µM
same,TGI,MALME-3M melanoma,46.5 µM
same,TGI,MCF7 breast,56.4 µM
same,TGI,MDA-MB-231 breast,35.5 µM
same,TGI,MDA-MB-435,31.8 µM
same,TGI,MDA-N,34 µM
same,TGI,MOLT-4 leukemia,> 100 µM
same,TGI,NCI-H226 lung,43.8 µM
same,TGI,NCI-H23 lung,30.1 µM
same,TGI,NCI-H460 lung,34.7 µM
same,TGI,NCI/ADR-RES ovarian,84.6 µM
same,TGI,OVCAR-3 ovarian,36.3 µM
same,TGI,OVCAR-4 ovarian,50.9 µM
same,TGI,OVCAR-5 ovarian,31.5 µM
same,TGI,OVCAR-8 ovarian,67.3 µM
same,TGI,PC-3 prostate,38.5 µM
same,TGI,RPMI-8226 leukemia,62 µM
same,TGI,RXF 393 renal,28.3 µM
same,TGI,SF-268 CNS,87.9 µM
same,TGI,SF-295 CNS,36.3 µM
same,TGI,SF-539 CNS,29.6 µM
same,TGI,SK-MEL-2 melanoma,31.8 µM
same,TGI,SK-MEL-28 melanoma,33.9 µM
same,TGI,SK-MEL-5 melanoma,29.7 µM
same,TGI,SK-OV-3 ovarian,56.6 µM
same,TGI,SNB-19 CNS,34.2 µM
same,TGI,SNB-75 CNS,43.6 µM
same,TGI,SR leukemia,79.4 µM
same,TGI,SW-620 colon,34 µM
same,TGI,T-47D breast,68.8 µM
same,TGI,TK-10 renal,99.3 µM
same,TGI,U251 CNS,35.3 µM
same,TGI,UACC-257 melanoma,56.3 µM
same,TGI,UACC-62 melanoma,30.1 µM
same,TGI,UO-31 renal,29.8 µM
COc1ccc2cc(C(=O)CCC(=O)O)ccc2c1,TGI,786-0 renal,> 100 µM
same,TGI,A498 renal,> 100 µM
same,TGI,A549 NSCLC,> 100 µM
same,TGI,ACHN renal,> 100 µM
same,TGI,BT-549 breast,> 100 µM
same,TGI,CAKI-1 renal,> 100 µM
same,TGI,CCRF-CEM leukemia,> 100 µM
same,TGI,COLO 205 colon,> 100 µM
same,TGI,DU-145 prostate,> 100 µM
same,TGI,EKVX NSCLC,> 100 µM
same,TGI,HCT-116 colon,> 100 µM
same,TGI,HCT-15 colon,> 100 µM
same,TGI,HL-60(TB) leukemia,> 100 µM
same,TGI,HOP-62 NSCLC,> 100 µM
same,TGI,HOP-92 NSCLC,> 100 µM
same,TGI,HS 578T breast,> 100 µM
same,TGI,HT29 colon,> 100 µM
same,TGI,IGROV1 ovarian,> 100 µM
same,TGI,K-562 leukemia,> 100 µM
same,TGI,KM12 colon,> 100 µM
same,TGI,LOX IMVI melanoma,> 100 µM
same,TGI,M14 melanoma,> 100 µM
same,TGI,MALME-3M melanoma,> 100 µM
same,TGI,MCF7 breast,> 100 µM
same,TGI,MDA-MB-231 breast,> 100 µM
same,TGI,MDA-MB-435,> 100 µM
same,TGI,MDA-N,> 100 µM
same,TGI,MOLT-4 leukemia,> 100 µM
same,TGI,NCI-H226 lung,> 100 µM
same,TGI,NCI-H23 lung,> 100 µM
same,TGI,NCI-H460 lung,> 100 µM
same,TGI,NCI-H522 lung,> 100 µM
same,TGI,NCI/ADR-RES ovarian,> 100 µM
same,TGI,OVCAR-3 ovarian,> 100 µM
same,TGI,OVCAR-4 ovarian,> 100 µM
same,TGI,OVCAR-5 ovarian,> 100 µM
same,TGI,OVCAR-8 ovarian,> 100 µM
same,TGI,PC-3 prostate,> 100 µM
same,TGI,RPMI-8226 leukemia,> 100 µM
same,TGI,RXF 393 renal,> 100 µM
same,TGI,SF-268 CNS,> 100 µM
same,TGI,SF-295 CNS,> 100 µM
same,TGI,SF-539 CNS,> 100 µM
same,TGI,SK-MEL-2 melanoma,> 100 µM
same,TGI,SK-MEL-28 melanoma,> 100 µM
same,TGI,SK-MEL-5 melanoma,> 100 µM
same,TGI,SK-OV-3 ovarian,> 100 µM
same,TGI,SN12C renal,> 100 µM
same,TGI,SNB-19 CNS,> 100 µM
same,TGI,SNB-75 CNS,> 100 µM
same,TGI,SR leukemia,> 100 µM
same,TGI,SW-620 colon,> 100 µM
same,TGI,T-47D breast,> 100 µM
same,TGI,TK-10 renal,> 100 µM
same,TGI,U251 CNS,> 100 µM
same,TGI,UACC-257 melanoma,> 100 µM
same,TGI,UACC-62 melanoma,> 100 µM
same,TGI,UO-31 renal,> 100 µM
COc1cc2c3c(c1O)-c1c(ccc(OC)c1OC)CC3N(C)CC2 (stereo not drawn),TGI,786-0 renal,> 100 µM
same,TGI,A498 renal,> 100 µM
same,TGI,A549 NSCLC,> 100 µM
same,TGI,ACHN renal,> 100 µM
same,TGI,BT-549 breast,> 100 µM
same,TGI,CAKI-1 renal,> 100 µM
same,TGI,CCRF-CEM leukemia,> 100 µM
same,TGI,COLO 205 colon,> 100 µM
same,TGI,DU-145 prostate,> 100 µM
same,TGI,EKVX NSCLC,> 100 µM
same,TGI,HCT-116 colon,> 100 µM
same,TGI,HCT-15 colon,> 100 µM
same,TGI,HL-60(TB) leukemia,> 100 µM
same,TGI,HOP-92 NSCLC,> 100 µM
same,TGI,HS 578T breast,> 100 µM
same,TGI,HT29 colon,> 100 µM
same,TGI,IGROV1 ovarian,> 100 µM
same,TGI,KM12 colon,> 100 µM
same,TGI,LOX IMVI melanoma,> 100 µM
same,TGI,M14 melanoma,> 100 µM
same,TGI,MCF7 breast,> 100 µM
same,TGI,MDA-MB-231 breast,> 100 µM
same,TGI,MDA-MB-435,> 100 µM
same,TGI,MDA-N,> 100 µM
same,TGI,MOLT-4 leukemia,> 100 µM
same,TGI,NCI-H226 lung,> 100 µM
same,TGI,NCI-H23 lung,> 100 µM
same,TGI,NCI-H460 lung,> 100 µM
same,TGI,NCI-H522 lung,> 100 µM
same,TGI,NCI/ADR-RES ovarian,> 100 µM
same,TGI,OVCAR-3 ovarian,> 100 µM
same,TGI,OVCAR-4 ovarian,> 100 µM
same,TGI,OVCAR-5 ovarian,> 100 µM
same,TGI,OVCAR-8 ovarian,> 100 µM
same,TGI,PC-3 prostate,> 100 µM
same,TGI,RPMI-8226 leukemia,> 100 µM
same,TGI,RXF 393 renal,> 100 µM
same,TGI,SF-268 CNS,> 100 µM
same,TGI,SF-295 CNS,> 100 µM
same,TGI,SF-539 CNS,> 100 µM
same,TGI,SK-MEL-2 melanoma,> 100 µM
same,TGI,SK-MEL-5 melanoma,> 100 µM
same,TGI,SK-OV-3 ovarian,> 100 µM
same,TGI,SN12C renal,> 100 µM
same,TGI,SNB-19 CNS,> 100 µM
same,TGI,SNB-75 CNS,> 100 µM
same,TGI,SR leukemia,> 100 µM
same,TGI,SW-620 colon,> 100 µM
same,TGI,T-47D breast,> 100 µM
same,TGI,TK-10 renal,> 100 µM
same,TGI,U251 CNS,> 100 µM
same,TGI,UACC-257 melanoma,> 100 µM
same,TGI,UACC-62 melanoma,> 100 µM
same,TGI,UO-31 renal,> 100 µM

# — PubChem BioAssay (NCI)
